{
  "source": "patent US20120231141A1",
  "about": "“BITTERNESS-IMPROVING AGENT FOR BITTER FOOD AND DRINK AND ASTRINGENCY-IMPROVING AGENT FOR ASTRINGENT FOOD AND DRINK” (priority 2009, published 2012)",
  "key": {"[1]": {"experiment": "Bitterness evaluation of green tea drink (flavor comparison by 10 panelists)", "format": "in vivo", "conditions": "for A: the number of panelists who felt no difference from sedanolide-free / B: the number of panelists who fell some reduction in bitterness / Flavor judgment: the number of panelists who judged it as most proper bitterness / N: the number of panelists who hardly felt bitterness: 10 panelists", "procedure": "Five thousand grams of hot water (containing 0.03% of sodium ascorbate) of 60° C. was added to 100 g of Chinese green tea (second picking tea) produced by Josei (heat treatment by steaming), followed by extraction for 5 min while sometimes stirring. Subsequently, solid-liquid separation with flannel filter was performed to obtain 4500 g of an extract (Bx 0.6°). To the extract, 0.04 g of tannase (Kikkoman Corporation: 5000 U/g) was added. The resulting mixture was left to stand at 40° C. for 1 hour to decompose the gallate-type catechin to non-gallate-type catechin (gallate-type catechin has strong astringency, and non-gallate-type catechin has strong bitterness), followed by heating at 90° C. for 1 min to inactivate the enzyme. After cooling to 20° C., the extract was adjusted to Bx 0.5° with deionized water to obtain green tea extract having strong bitterness. Sedanolide was added as a taste-improving agent (masking agent for bitterness) of the present invention to the resulting extract at the concentrations shown in the following Table 3 to obtain green tea drinks."}, "[2]": {"experiment": "Bitterness evaluation of grapefruit juice (flavor comparison by 10 panelists)", "format": "in vivo", "conditions": "for A: the number of panelists who felt no difference from 3-n-butylphthalide-free / B: the number of panelists who felt some reduction in bitterness / Flavor judgment: the number of panelists who judged it as most proper bitterness / N: the number of panelists who hardly felt bitterness: 10 panelists", "procedure": "3-n-Butylphthalide was added as a bitterness-improving agent (masking agent for bitterness) of the present invention to commercially available grapefruit juice at the concentrations shown in the following Table 2 to obtain grapefruit juice."}, "[3]": {"conditions": "sedanolide 0.01 ppb in green tea drink having strong bitterness"}, "[4]": {"conditions": "sedanolide 0.01 ppm in green tea drink having strong bitterness"}, "[5]": {"conditions": "sedanolide 0.1 ppb in green tea drink having strong bitterness"}, "[6]": {"conditions": "sedanolide 0.1 ppm in green tea drink having strong bitterness"}, "[7]": {"conditions": "sedanolide 1 ppb in green tea drink having strong bitterness"}, "[8]": {"conditions": "sedanolide 1 ppm in green tea drink having strong bitterness"}, "[9]": {"conditions": "sedanolide 1 ppt in green tea drink having strong bitterness"}, "[10]": {"conditions": "sedanolide 10 ppm in green tea drink having strong bitterness"}, "[11]": {"conditions": "3-n-butylphthalide 0.01 ppb in grapefruit juice"}, "[12]": {"conditions": "3-n-butylphthalide 0.01 ppm in grapefruit juice"}, "[13]": {"conditions": "3-n-butylphthalide 0.1 ppb in grapefruit juice"}, "[14]": {"conditions": "3-n-butylphthalide 0.1 ppm in grapefruit juice"}, "[15]": {"conditions": "3-n-butylphthalide 1 ppb in grapefruit juice"}, "[16]": {"conditions": "3-n-butylphthalide 1 ppm in grapefruit juice"}, "[17]": {"conditions": "3-n-butylphthalide 1 ppt in grapefruit juice"}, "[18]": {"conditions": "3-n-butylphthalide 10 ppm in grapefruit juice"}},
  "data": [
    {"smiles": "CCCCC1OC(=O)C2=CCCCC21", "note": "(stereo not shown) [sedanolide]", "values": [
      {"measurement": "overall result of bitterness masking", "setting": "[1]; amount of sedanolide about 0.1 ppb to 1 ppm, green tea drink", "value": "particularly good results were obtained"},
      {"measurement": "bitterness of green tea drink (judgment)", "setting": "[1]; green tea drink containing 0.01 ppb to 10 ppm of sedanolide", "value": "masked"},
      {"measurement": "A: the number of panelists who felt no difference from sedanolide-free", "setting": "[1]; [3]", "value": 8},
      {"measurement": "B: the number of panelists who fell some reduction in bitterness", "setting": "[1]; [3]", "value": 2},
      {"measurement": "Flavor judgment: the number of panelists who judged it as most proper bitterness", "setting": "[1]; [3]", "value": 0},
      {"measurement": "N: the number of panelists who hardly felt bitterness", "setting": "[1]; [3]", "value": 0},
      {"measurement": "reduction in bitterness at low concentration", "setting": "[1]; sedanolide 0.01 ppb, green tea drink", "value": "some panelists felt some reduction in bitterness"},
      {"measurement": "A: the number of panelists who felt no difference from sedanolide-free", "setting": "[1]; [4]", "value": 2},
      {"measurement": "B: the number of panelists who fell some reduction in bitterness", "setting": "[1]; [4]", "value": 6},
      {"measurement": "Flavor judgment: the number of panelists who judged it as most proper bitterness", "setting": "[1]; [4]", "value": 2},
      {"measurement": "N: the number of panelists who hardly felt bitterness", "setting": "[1]; [4]", "value": 2},
      {"measurement": "A: the number of panelists who felt no difference from sedanolide-free", "setting": "[1]; [5]", "value": 4},
      {"measurement": "B: the number of panelists who fell some reduction in bitterness", "setting": "[1]; [5]", "value": 5},
      {"measurement": "Flavor judgment: the number of panelists who judged it as most proper bitterness", "setting": "[1]; [5]", "value": 0},
      {"measurement": "N: the number of panelists who hardly felt bitterness", "setting": "[1]; [5]", "value": 1},
      {"measurement": "A: the number of panelists who felt no difference from sedanolide-free", "setting": "[1]; [6]", "value": 0},
      {"measurement": "B: the number of panelists who fell some reduction in bitterness", "setting": "[1]; [6]", "value": 5},
      {"measurement": "Flavor judgment: the number of panelists who judged it as most proper bitterness", "setting": "[1]; [6]", "value": 5},
      {"measurement": "N: the number of panelists who hardly felt bitterness", "setting": "[1]; [6]", "value": 5},
      {"measurement": "A: the number of panelists who felt no difference from sedanolide-free", "setting": "[1]; [7]", "value": 3},
      {"measurement": "B: the number of panelists who fell some reduction in bitterness", "setting": "[1]; [7]", "value": 6},
      {"measurement": "Flavor judgment: the number of panelists who judged it as most proper bitterness", "setting": "[1]; [7]", "value": 0},
      {"measurement": "N: the number of panelists who hardly felt bitterness", "setting": "[1]; [7]", "value": 1},
      {"measurement": "A: the number of panelists who felt no difference from sedanolide-free", "setting": "[1]; [8]", "value": 0},
      {"measurement": "B: the number of panelists who fell some reduction in bitterness", "setting": "[1]; [8]", "value": 5},
      {"measurement": "Flavor judgment: the number of panelists who judged it as most proper bitterness", "setting": "[1]; [8]", "value": 3},
      {"measurement": "N: the number of panelists who hardly felt bitterness", "setting": "[1]; [8]", "value": 5},
      {"measurement": "A: the number of panelists who felt no difference from sedanolide-free", "setting": "[1]; [9]", "value": 10},
      {"measurement": "B: the number of panelists who fell some reduction in bitterness", "setting": "[1]; [9]", "value": 0},
      {"measurement": "Flavor judgment: the number of panelists who judged it as most proper bitterness", "setting": "[1]; [9]", "value": 0},
      {"measurement": "N: the number of panelists who hardly felt bitterness", "setting": "[1]; [9]", "value": 0},
      {"measurement": "A: the number of panelists who felt no difference from sedanolide-free", "setting": "[1]; [10]", "value": 0},
      {"measurement": "B: the number of panelists who fell some reduction in bitterness", "setting": "[1]; [10]", "value": 5},
      {"measurement": "Flavor judgment: the number of panelists who judged it as most proper bitterness", "setting": "[1]; [10]", "value": 0},
      {"measurement": "N: the number of panelists who hardly felt bitterness", "setting": "[1]; [10]", "value": 5}
    ]},
    {"smiles": "CCCCC1OC(=O)c2ccccc21", "note": "(stereo not shown) [3-n-butylphthalide]", "values": [
      {"measurement": "A: the number of panelists who felt no difference from 3-n-butylphthalide-free", "setting": "[2]; [11]", "value": 7},
      {"measurement": "B: the number of panelists who felt some reduction in bitterness", "setting": "[2]; [11]", "value": 2},
      {"measurement": "Flavor judgment: the number of panelists who judged it as most proper bitterness", "setting": "[2]; [11]", "value": 0},
      {"measurement": "N: the number of panelists who hardly felt bitterness", "setting": "[2]; [11]", "value": 1},
      {"measurement": "reduction in bitterness at low concentration", "setting": "[2]; 3-n-butylphthalide 0.01 ppb, grapefruit juice", "value": "some panelists felt some reduction in bitterness"},
      {"measurement": "A: the number of panelists who felt no difference from 3-n-butylphthalide-free", "setting": "[2]; [12]", "value": 2},
      {"measurement": "B: the number of panelists who felt some reduction in bitterness", "setting": "[2]; [12]", "value": 6},
      {"measurement": "Flavor judgment: the number of panelists who judged it as most proper bitterness", "setting": "[2]; [12]", "value": 2},
      {"measurement": "N: the number of panelists who hardly felt bitterness", "setting": "[2]; [12]", "value": 2},
      {"measurement": "A: the number of panelists who felt no difference from 3-n-butylphthalide-free", "setting": "[2]; [13]", "value": 4},
      {"measurement": "B: the number of panelists who felt some reduction in bitterness", "setting": "[2]; [13]", "value": 6},
      {"measurement": "Flavor judgment: the number of panelists who judged it as most proper bitterness", "setting": "[2]; [13]", "value": 0},
      {"measurement": "N: the number of panelists who hardly felt bitterness", "setting": "[2]; [13]", "value": 0},
      {"measurement": "A: the number of panelists who felt no difference from 3-n-butylphthalide-free", "setting": "[2]; [14]", "value": 0},
      {"measurement": "B: the number of panelists who felt some reduction in bitterness", "setting": "[2]; [14]", "value": 4},
      {"measurement": "Flavor judgment: the number of panelists who judged it as most proper bitterness", "setting": "[2]; [14]", "value": 5},
      {"measurement": "N: the number of panelists who hardly felt bitterness", "setting": "[2]; [14]", "value": 6},
      {"measurement": "A: the number of panelists who felt no difference from 3-n-butylphthalide-free", "setting": "[2]; [15]", "value": 3},
      {"measurement": "B: the number of panelists who felt some reduction in bitterness", "setting": "[2]; [15]", "value": 7},
      {"measurement": "Flavor judgment: the number of panelists who judged it as most proper bitterness", "setting": "[2]; [15]", "value": 0},
      {"measurement": "N: the number of panelists who hardly felt bitterness", "setting": "[2]; [15]", "value": 0},
      {"measurement": "A: the number of panelists who felt no difference from 3-n-butylphthalide-free", "setting": "[2]; [16]", "value": 0},
      {"measurement": "B: the number of panelists who felt some reduction in bitterness", "setting": "[2]; [16]", "value": 4},
      {"measurement": "Flavor judgment: the number of panelists who judged it as most proper bitterness", "setting": "[2]; [16]", "value": 3},
      {"measurement": "N: the number of panelists who hardly felt bitterness", "setting": "[2]; [16]", "value": 6},
      {"measurement": "A: the number of panelists who felt no difference from 3-n-butylphthalide-free", "setting": "[2]; [17]", "value": 9},
      {"measurement": "B: the number of panelists who felt some reduction in bitterness", "setting": "[2]; [17]", "value": 1},
      {"measurement": "Flavor judgment: the number of panelists who judged it as most proper bitterness", "setting": "[2]; [17]", "value": 0},
      {"measurement": "N: the number of panelists who hardly felt bitterness", "setting": "[2]; [17]", "value": 0},
      {"measurement": "A: the number of panelists who felt no difference from 3-n-butylphthalide-free", "setting": "[2]; [18]", "value": 0},
      {"measurement": "B: the number of panelists who felt some reduction in bitterness", "setting": "[2]; [18]", "value": 3},
      {"measurement": "Flavor judgment: the number of panelists who judged it as most proper bitterness", "setting": "[2]; [18]", "value": 0},
      {"measurement": "N: the number of panelists who hardly felt bitterness", "setting": "[2]; [18]", "value": 7},
      {"measurement": "overall result of bitterness masking", "setting": "[2]; amount of 3-n-butylphthalide about 0.1 ppb to 1 ppm, grapefruit juice", "value": "particularly good results were obtained"},
      {"measurement": "bitterness of grapefruit juice (judgment)", "setting": "[2]; grapefruit juice containing 0.01 ppb to 10 ppm of 3-n-butylphthalide", "value": "masked"}
    ]}
  ]
}
